Data: patent publication US6235738A, “Diphenyl-substituted heterocycles with 6-membered ring, processes for the preparation thereof and the use thereof as medicaments” (Boehringer Ingelheim Pharma KG, priority 1998, dated 2001)

Key:
[1] = tested on: AMPA receptor; experiment: Inhibition of the signal induced by kainate on AMPA receptor (electrophysiology on neuronal cells, Patch-Clamp method); format: cell-based; settings: concentration not given
Protocol: The effected on AMPA receptor was tested by electrophysiology on neuronal cells (Patch-Clamp method) (M. L. Mayer, L. Vyklicky and G. L. Westbrook, J. Physiol. 415(1989) 329-350).
Inhibition of the signal induced by kainate on AMPA receptor

[2] = biological target: Na^+ canal site 2 binding site; experiment: Affinity for the "Na^+ canal site 2" binding site; settings: tests typically at a test concentration of 10 μM
Protocol: The test of affinity for the "Na^+ canal site 2" binding site was carried out as described by G. B. Brown (J. Neurosci. 6 (1986) 2064). Tests were carried out typically at a test concentration of 10 μM.

CN(C)CCOc1ccccc1-c1ccnc(-c2ccccc2)n1 [Example 4, 4-{2-[2-(N,N-Dimethylamino)ethyl]oxy-phenyl}-2-phenyl-pyrimidine]
AMPA Inh. [1]: 96%
Ki [2]: 4000 nM

CN(C)CCOc1ccccc1-c1ncnc(-c2ccccc2)n1 [Example 6, 2-{2-[2-(N,N-Dimethylamino)ethyl]oxy-phenyl}-4-phenyl-1,3,5-triazine]
AMPA Inh. [1]: 66%
Ki [2]: 2800 nM

CN(C)CCOc1ccccc1-c1cnnc(-c2ccccc2)n1 [Example 7, 5-{2-[2-(N,N-Dimethylamino)ethyl]oxy-phenyl}-3-phenyl-1,2,4-triazine]
AMPA Inh. [1]: 98%
Ki [2]: 2400 nM

CN(C)CCOc1ccccc1-c1nncc(-c2ccccc2)n1 [Example 8, 3-{2-[2-(N,N-Dimethylamino)ethyl]oxy-phenyl}-5-phenyl-1,2,4-triazine]
AMPA Inh. [1]: 95%
